Experimental data: PubChem BioAssay (NCI)
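GI50: concentration for 50% inhibition of growth. TGI marks complete inhibition of growth.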

Key:
Test in all cases: NCI-60 cell line screen, 384-well format
[1] = tested on: 786-0 renal
[2] = tested on: A498 renal
[3] = tested on: A549 NSCLC
[4] = tested on: ACHN renal
[5] = tested on: BT-549 breast
[6] = tested on: CAKI-1 renal
[7] = tested on: CCRF-CEM leukemia
[8] = tested on: COLO 205 colon
[9] = tested on: DU-145 prostate
[10] = tested on: EKVX NSCLC
[11] = tested on: HCT-116 colon
[12] = tested on: HCT-15 colon
[13] = tested on: HL-60(TB) leukemia
[14] = tested on: HOP-62 NSCLC
[15] = tested on: HOP-92 NSCLC
[16] = tested on: HS 578T breast
[17] = tested on: IGROV1 ovarian
[18] = tested on: K-562 leukemia
[19] = tested on: KM12 colon
[20] = tested on: LOX IMVI melanoma
[21] = tested on: MALME-3M melanoma
[22] = tested on: MCF7 breast
[23] = tested on: MDA-MB-231 breast
[24] = tested on: MDA-MB-435 melanoma
[25] = tested on: MDA-MB-468 breast
[26] = tested on: MOLT-4 leukemia
[27] = tested on: NCI-H23 lung
[28] = tested on: NCI-H322M lung
[29] = tested on: NCI-H460 NSCLC
[30] = tested on: NCI-H522 lung
[31] = tested on: NCI/ADR-RES ovarian
[32] = tested on: OVCAR-3 ovarian
[33] = tested on: OVCAR-4 ovarian
[34] = tested on: OVCAR-5 ovarian
[35] = tested on: PC-3 prostate
[36] = tested on: RPMI-8226 leukemia
[37] = tested on: RXF 393 renal
[38] = tested on: SF-268 CNS
[39] = tested on: SF-539 CNS
[40] = tested on: SK-MEL-2 melanoma
[41] = tested on: SK-MEL-28 melanoma
[42] = tested on: SK-MEL-5 melanoma
[43] = tested on: SK-OV-3 ovarian
[44] = tested on: SN12C renal
[45] = tested on: SNB-19 CNS
[46] = tested on: SR leukemia
[47] = tested on: SW-620 colon
[48] = tested on: T-47D breast
[49] = tested on: TK-10 renal
[50] = tested on: U251 glioblastoma
[51] = tested on: UO-31 renal
[52] = tested on: HCC-2998 colon
[53] = tested on: HT29 colon
[54] = tested on: M14 melanoma
[55] = tested on: NCI-H226 lung
[56] = tested on: OVCAR-8 ovarian
[57] = tested on: SF-295 CNS
[58] = tested on: UACC-257 melanoma
[59] = tested on: UACC-62 melanoma

## COc1ccccc1S(=O)(=O)Nc1ccc2c(c1)CN(C)C(=O)N2
[1]
  GI50: 16.7 nM
  TGI: 15900 nM
[2]
  GI50: < 10 nM
  TGI: 60700 nM
[3]
  GI50: 33.1 nM
  TGI: > 100000 nM
[4]
  GI50: 15.3 nM
  TGI: > 100000 nM
[5]
  GI50: < 10 nM
  TGI: 32.4 nM
[6]
  GI50: < 10 nM
  TGI: > 100000 nM
[7]
  GI50: < 10 nM
  TGI: < 10 nM
[8]
  GI50: < 10 nM
  TGI: 62.6 nM
[9]
  GI50: 20.2 nM
  TGI: 58.1 nM
[10]
  GI50: 20.5 nM
  TGI: > 100000 nM
[11]
  GI50: 14.5 nM
  TGI: 77.3 nM
[12]
  GI50: 12.6 nM
  TGI: 46.9 nM
[13]
  GI50: < 10 nM
  TGI: 13.1 nM
[14]
  GI50: 20.8 nM
  TGI: > 100000 nM
[15]
  GI50: < 10 nM
  TGI: 66800 nM
[16]
  GI50: < 10 nM
  TGI: 19.2 nM
[17]
  GI50: 22.5 nM
  TGI: 73600 nM
[18]
  GI50: < 10 nM
  TGI: 18 nM
[19]
  GI50: 18.8 nM
  TGI: 71.4 nM
[20]
  GI50: 21.3 nM
  TGI: 87.1 nM
[21]
  GI50: < 10 nM
  TGI: > 100000 nM
[22]
  GI50: 35.9 nM
  TGI: 12300 nM
[23]
  GI50: 32.4 nM
  TGI: > 100000 nM
[24]
  GI50: < 10 nM
  TGI: < 10 nM
[25]
  GI50: 17.1 nM
  TGI: 34.7 nM
[26]
  GI50: < 10 nM
  TGI: 19.5 nM
[27]
  GI50: 16.3 nM
  TGI: 53.7 nM
[28]
  GI50: 18.8 nM
  TGI: > 100000 nM
[29]
  GI50: 21.3 nM
  TGI: 45.3 nM
[30]
  GI50: < 10 nM
  TGI: < 10 nM
[31]
  GI50: 12 nM
  TGI: 27.1 nM
[32]
  GI50: 12 nM
  TGI: 33.2 nM
[33]
  GI50: 16.2 nM
  TGI: > 100000 nM
[34]
  GI50: 26 nM
  TGI: > 100000 nM
[35]
  GI50: < 10 nM
  TGI: > 100000 nM
[36]
  GI50: 19.5 nM
  TGI: 37.3 nM
[37]
  GI50: < 10 nM
  TGI: < 10 nM
[38]
  GI50: 20.3 nM
  TGI: 134 nM
[39]
  GI50: 14.4 nM
  TGI: 37.6 nM
[40]
  GI50: 18.1 nM
  TGI: 39.3 nM
[41]
  GI50: < 10 nM
  TGI: > 100000 nM
[42]
  GI50: < 10 nM
  TGI: 12.9 nM
[43]
  GI50: < 10 nM
  TGI: 7040 nM
[44]
  GI50: 24.7 nM
  TGI: > 100000 nM
[45]
  GI50: 19.8 nM
  TGI: 20000 nM
[46]
  GI50: < 10 nM
  TGI: < 10 nM
[47]
  GI50: 31.1 nM
  TGI: > 100000 nM
[48]
  GI50: 17200 nM
  TGI: > 100000 nM
[49]
  GI50: < 10 nM
  TGI: > 100000 nM
[50]
  GI50: 26.7 nM
  TGI: 82.2 nM
[51]
  GI50: 20.6 nM
  TGI: > 100000 nM

## c1ccc(Cn2c(-c3ccc(OC[C@H](C4CCNCC4)n4c(-c5ccccc5)nc5ccccc54)cc3)nc3ccccc32)cc1
[1]
  GI50: 1730 nM
  TGI: 3120 nM
[2]
  GI50: 1700 nM
  TGI: 3080 nM
[3]
  GI50: 1840 nM
  TGI: 3260 nM
[4]
  GI50: 1840 nM
  TGI: 3250 nM
[5]
  GI50: 1700 nM
  TGI: 3080 nM
[6]
  GI50: 1840 nM
  TGI: 3240 nM
[7]
  GI50: 1260 nM
  TGI: 2520 nM
[8]
  GI50: 1820 nM
  TGI: 3230 nM
[9]
  GI50: 1860 nM
  TGI: 3280 nM
[52]
  GI50: 1360 nM
  TGI: 2650 nM
[11]
  GI50: 1450 nM
  TGI: 2780 nM
[12]
  GI50: 1860 nM
  TGI: 3280 nM
[13]
  GI50: 1790 nM
  TGI: 3180 nM
[14]
  GI50: 2020 nM
  TGI: 3460 nM
[15]
  GI50: 1630 nM
  TGI: 2990 nM
[53]
  GI50: 1660 nM
  TGI: 3040 nM
[17]
  GI50: 1650 nM
  TGI: 3020 nM
[18]
  GI50: 1500 nM
  TGI: 2830 nM
[19]
  GI50: 1800 nM
  TGI: 3210 nM
[20]
  GI50: 2330 nM
  TGI: 3800 nM
[54]
  GI50: 1790 nM
  TGI: 3180 nM
[21]
  GI50: 1790 nM
  TGI: 3180 nM
[22]
  GI50: 1610 nM
  TGI: 2980 nM
[23]
  GI50: 1890 nM
  TGI: 3300 nM
[24]
  GI50: 2000 nM
  TGI: 3430 nM
[25]
  GI50: 1970 nM
  TGI: 3390 nM
[26]
  GI50: 1160 nM
  TGI: 2410 nM
[55]
  GI50: 1770 nM
  TGI: 3160 nM
[27]
  GI50: 2230 nM
  TGI: 3680 nM
[28]
  GI50: 1690 nM
  TGI: 3060 nM
[29]
  GI50: 1700 nM
  TGI: 3120 nM
[30]
  GI50: 1890 nM
  TGI: 3290 nM
[31]
  GI50: 2400 nM
  TGI: 5200 nM
[32]
  GI50: 1810 nM
  TGI: 3220 nM
[33]
  GI50: 1510 nM
  TGI: 2850 nM
[34]
  GI50: 2030 nM
  TGI: 3470 nM
[56]
  GI50: 1810 nM
  TGI: 3220 nM
[35]
  GI50: 1830 nM
  TGI: 3250 nM
[36]
  GI50: 971 nM
  TGI: 2140 nM
[37]
  GI50: 1580 nM
  TGI: 2920 nM
[38]
  GI50: 1800 nM
  TGI: 3200 nM
[57]
  GI50: 1860 nM
  TGI: 3270 nM
[39]
  GI50: 1660 nM
  TGI: 3030 nM
[40]
  GI50: 1510 nM
  TGI: 2840 nM
[41]
  GI50: 1830 nM
  TGI: 3230 nM
[42]
  GI50: 1820 nM
  TGI: 3220 nM
[43]
  GI50: 1680 nM
  TGI: 3060 nM
[44]
  GI50: 1820 nM
  TGI: 3220 nM
[45]
  GI50: 1970 nM
  TGI: 3400 nM
[46]
  GI50: 1170 nM
  TGI: 2410 nM
[47]
  GI50: 1740 nM
  TGI: 3140 nM
[48]
  GI50: 1610 nM
  TGI: 2970 nM
[49]
  GI50: 1850 nM
  TGI: 3250 nM
[50]
  GI50: 1590 nM
  TGI: 2960 nM
[58]
  GI50: 1270 nM
  TGI: 2530 nM
[59]
  GI50: 1890 nM
  TGI: 3300 nM
[51]
  GI50: 1870 nM
  TGI: 3270 nM
